Data: the supplement of paper PMC11451515

What was measured:
Conditions in all cases: 48 h
[1] = system: NOMO1; experiment: cell viability relative to DMSO control; higher = less cytotoxic
Procedure, shortened: (§1)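 Viability is expressed as a percentage of DMSO wells within each plate, and cell-free wells serve as background. Seeding densities in the 1536-well plates (5 μl) were 500 cells/well for NOMO1 or SEM leukemia cells and 1000 cells/well for P12-Ichikawa. Each line was adapted for at least four passages in each medium. Library compounds in DMSO were pin-dosed at 47 μM to 0.79 nM (11 points, threefold), and CellTiter-Glo One luminescence was read after 48 h at 37°C.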

[2] = system: P12-Ichikawa; experiment: as above
Procedure, shortened: as §1

[3] = system: SEM cells; experiment: as above
Procedure, shortened: as §1

[4] = system: NOMO1; experiment: AUC of viability dose-response curve (% viability x log10 dose units); higher = less sensitive
Procedure, shortened: (§2)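 In 1536-well plates, leukemia cells adapted to each medium (500 or 1000 cells/well) were exposed for 48 h at 37°C to library compounds in DMSO across 11 threefold doses, 47 μM down to 0.79 nM. Viability was read by CellTiter-Glo One luminescence and normalised per plate to DMSO and cell-free wells. A four-parameter log-logistic fit over log10 doses was integrated by trapezoidal rule. This yielded the area under the curve, with over-full-viability curves scaled and quality-control failures dropped.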

[5] = system: P12-Ichikawa; experiment: as above
Procedure, shortened: as §2

[6] = system: SEM cells; experiment: as above
Procedure, shortened: as §2

CCN(CC)CCOc1ccc(Cc2ccccc2)cc1
cell viability [%]
Conditions | [1] | [2] | [3]
HPLM + 10% dialyzed FBS, 0.000781 µM | 97.9 | 103 | 102
HPLM + 10% dialyzed FBS, 0.00234 µM | 102 | 104 | 101
HPLM + 10% dialyzed FBS, 0.00702 µM | 113 | 102 | 110
HPLM + 10% dialyzed FBS, 0.0211 µM | 92.9 | 101 | 88.4
HPLM + 10% dialyzed FBS, 0.0632 µM | 110 | 98.9 | 92.2
HPLM + 10% dialyzed FBS, 0.19 µM | 106 | 103 | 102
HPLM + 10% dialyzed FBS, 0.569 µM | 113 | 105 | 104
HPLM + 10% dialyzed FBS, 1.71 µM | 102 | 95.4 | 89.4
HPLM + 10% dialyzed FBS, 5.12 µM | 74.1 | 85.2 | 87.1
HPLM + 10% dialyzed FBS, 15.4 µM | 21.2 | 29.8 | 75.9
HPLM + 10% dialyzed FBS, 46.1 µM | 14.2 | 22.8 | 46.6
RPMI 5 mM glucose + 10% FBS, 0.000781 µM | 92.2 | 101 | 107
RPMI 5 mM glucose + 10% FBS, 0.00234 µM | 92.2 | 95.9 | 98
RPMI 5 mM glucose + 10% FBS, 0.00702 µM | 94.2 | 95.1 | 98.9
RPMI 5 mM glucose + 10% FBS, 0.0211 µM | 106 | 95.9 | 102
RPMI 5 mM glucose + 10% FBS, 0.0632 µM | 102 | 99.4 | 95.5
RPMI 5 mM glucose + 10% FBS, 0.19 µM | 91.8 | 98.5 | 102
RPMI 5 mM glucose + 10% FBS, 0.569 µM | 101 | 102 | 91.9
RPMI 5 mM glucose + 10% FBS, 1.71 µM | 91.6 | 93 | 88.4
RPMI 5 mM glucose + 10% FBS, 5.12 µM | 83.4 | 85.7 | 44.9
RPMI 5 mM glucose + 10% FBS, 15.4 µM | 68.3 | 77.6 | 11.8
RPMI 5 mM glucose + 10% FBS, 46.1 µM | 57 | 79.3 | 9.79
RPMI 5 mM glucose + 10% dialyzed FBS, 0.000781 µM | 99.1 | 87.1 | 108
RPMI 5 mM glucose + 10% dialyzed FBS, 0.00234 µM | 96 | 96 | 102
RPMI 5 mM glucose + 10% dialyzed FBS, 0.00702 µM | 108 | 86.5 | 101
RPMI 5 mM glucose + 10% dialyzed FBS, 0.0211 µM | 108 | 97.8 | 113
RPMI 5 mM glucose + 10% dialyzed FBS, 0.0632 µM | 97.8 | 93.4 | 93.8
RPMI 5 mM glucose + 10% dialyzed FBS, 0.19 µM | 108 | 89.8 | 110
RPMI 5 mM glucose + 10% dialyzed FBS, 0.569 µM | 97.9 | 99.5 | 104
RPMI 5 mM glucose + 10% dialyzed FBS, 1.71 µM | 108 | 93.1 | 101
RPMI 5 mM glucose + 10% dialyzed FBS, 5.12 µM | 97.5 | 92 | 85.1
RPMI 5 mM glucose + 10% dialyzed FBS, 15.4 µM | 91.4 | 52 | 19.4
RPMI 5 mM glucose + 10% dialyzed FBS, 46.1 µM | 78.3 | 34.4 | 16.9

AUC of viability dose-response curve
Conditions | [4] | [5] | [6]
HPLM + 10% dialyzed FBS | 403 | 417 | 442
RPMI 5 mM glucose + 10% FBS | 431 | 446 | 380
RPMI 5 mM glucose + 10% dialyzed FBS | 464 | 409 | 409
